Patent US9605000B2, “Spiro azetidine isoxazole derivatives and their use as SSTR antagonists” (Takeda Pharmaceutical Company Limited, priority 2013, dated 2017)

Key:
human SSTR5 = target: T1, human SSTR5 (Homo sapiens, UniProt P35346); assay: Human SSTR5 antagonist activity using intracellular cAMP concentration as indicator (somatostatin 28, Test Example 2); format: cell-based; conditions: 1 μM test compound; somatostatin 28 and 0.3 μM forskolin; CHO (dhfr-) cells expressing human SSTR5; HTRF cAMP; read-out: Inhibition rate (%) with respect to SSTR5 in concentration of 1 μM
T1 construct: expressed in transfected cells
Experimental: Evaluation of Human SSTR5 Antagonist Activity Using an Intracellular cAMP Concentration as an Indicator
Measurement of the intracellular cAMP concentration was performed using a HTRF cAMP dynamic 2 kit (manufactured by Cisbio). A test compound which was diluted with an assay buffer (5 mM HEPES (pH 7.5) (manufactured by Invitrogen Corp.), 0.1% fatty-acid free BSA (manufactured by Sigma-Aldrich, Inc.), HBSS (manufactured by Invitrogen Corp.) containing 500 μM IBMX (manufactured by Wako Pure Chemical Industries, Ltd) was added by 2 μL/well to a 384 well white plate (manufactured by Greiner) such that a final concentration become 1 μM. A frozen stock, which was stably expressed dihydrofolate reductase-deficient CHO (dhfr-) cells in which human SSTR5 gene (Accession No. NM001053) was melted in a thermostatic chamber at 37° C., and it was suspended on a medium of subculture (medium prepared from MEM alpha (manufactured by Wako Pure Chemical Industries, Ltd.), 10% dialyzed serum (manufacture by Gemini Co., Ltd.) and 50 μg/mL gentamicin (manufactured by Invitrogen Corp.). After centrifuging the cell suspension, the cell suspension was resuspended using the assay buffer, and the resultant was added to each well by 2 μL/well to be 4000 cells/well. After a test compound and cells were incubated for 15 minutes. An assay buffer which contains 0.1 nM of somatostatin 28 (manufactured by Toray Research Center) and 0.3 μM of forskolin (manufactured by Wako Pure Chemical Industries, Ltd) as a final concentration was added by […], and incubation was performed for 30 minutes at room temperature. Each of cAMP-d2 and anti-cAMP-cryptate was added by 3 μL/well, it was allowed to stand for 60 minutes at room temperature, and FRET (Fluorescence resonance energy transfer) intensity was measured using Multi-label reader Envision (manufactured by Perkin Elmer Inc.). Using the calibration curve prepared from the FRET intensity of well groups in which cAMP as arbitrary concentration was added to an assay buffer, FRET intensity of wells in which a test compound group was added was converted into cAMP concentration. Inhibitory activity of compounds was calculated using the following equation. Inhibitory activity (%)=(C−B)/(A−B)×100 A: cAMP concentration calculated from wells in which 0.3 μM of forskolin is added B: cAMP concentration calculated from wells in which 0.3 μM of forskolin and 1 nM of somatostatin 28 are added C: cAMP concentration wells in which 0.3 μM of forskolin, 1 nM of somatostatin 28 and 1 μM of test compound are added
Inhibition rates (%) are described in Table 3 with respect to SSTR5 in concentration of 1 μM of a test compound.

C57BL/6J mice = assay: Evaluation of glucose lowering effect (oral glucose load in high fat diet fed mice, Test Example 3); format: in vivo; conditions: 3 mg/kg oral, male C57BL/6J mice on HFD, Mean ± SD, n = 6
Experimental: Evaluation of Glucose Lowering Effect
8-week-old male C57BL/6J mice were purchased from CLEA Japan, Inc. After feeding high fat diet (HFD; D12492, Research Diets, Inc.) for a week, weight of mice is measured a day before the experiment, and the mice were separated in groups based on the weight. On the day of experiment, vehicle (0.5% methyl cellulose solution) or test drug (0.5% methyl cellulose suspension) were orally administered 1 hour after fasting was started and glucose load was given orally 9 hours after fasting was started. Just before the glucose load, Blood Glucose (BG) was measured by drawing blood from the tail (pre), and BG was measured again from the tail 10 minutes, 30 minutes, 60 minutes and 120 minutes after the glucose load. All values were indicated with Mean±Standard Deviation (SD), and in the statistical analysis, Williams test was used for the case of equal variance and Shirley-Williams test was used for non-equal variance in the comparison of the vehicle group and test drug group.

hERG = hERG (Homo sapiens, UniProt Q12809); assay: hERG activity measurement by IonWorks Quattro (Test Example 4); format: cell-based; conditions: 5 minutes exposure, CHO cells stably expressing hERG, IonWorks Quattro PPC mode
Experimental: hERG Activity Measurement by IonWorks Quattro
A cell strain CYL3038 having hERG stably expressed in CHO cells was purchased from Millipore LIMITED. A subculture of CYL3038 was prepared using Ham's F-12 medium containing 10% FBS and 500 μg/mL Geneticin, under the presence of 5% CO2 at 32° C. hERG current inhibition was measured by PPC mode of IonWorks Quattro (Molecular Devices, Inc.). As an extracellular fluid, PBS (+) was used. As an intracellular fluid, 20 mM HEPES buffer (pH 7.3) containing 140 mM KCl, 2 mM MgCl2 and 1 mM EGTA was used, and the cell was perforated by amphotericin. As the voltage protocol, holding potential was set to −80 mV, prepulsevoltage was set to 40 mV (2 seconds) and test pulsevoltage was set to −50 mV (2 seconds). Current values before and after addition of compound are respectively recorded as pre-compound hERG current and post-compound hERG current.

Chain of hERG (Q12809 whole entry): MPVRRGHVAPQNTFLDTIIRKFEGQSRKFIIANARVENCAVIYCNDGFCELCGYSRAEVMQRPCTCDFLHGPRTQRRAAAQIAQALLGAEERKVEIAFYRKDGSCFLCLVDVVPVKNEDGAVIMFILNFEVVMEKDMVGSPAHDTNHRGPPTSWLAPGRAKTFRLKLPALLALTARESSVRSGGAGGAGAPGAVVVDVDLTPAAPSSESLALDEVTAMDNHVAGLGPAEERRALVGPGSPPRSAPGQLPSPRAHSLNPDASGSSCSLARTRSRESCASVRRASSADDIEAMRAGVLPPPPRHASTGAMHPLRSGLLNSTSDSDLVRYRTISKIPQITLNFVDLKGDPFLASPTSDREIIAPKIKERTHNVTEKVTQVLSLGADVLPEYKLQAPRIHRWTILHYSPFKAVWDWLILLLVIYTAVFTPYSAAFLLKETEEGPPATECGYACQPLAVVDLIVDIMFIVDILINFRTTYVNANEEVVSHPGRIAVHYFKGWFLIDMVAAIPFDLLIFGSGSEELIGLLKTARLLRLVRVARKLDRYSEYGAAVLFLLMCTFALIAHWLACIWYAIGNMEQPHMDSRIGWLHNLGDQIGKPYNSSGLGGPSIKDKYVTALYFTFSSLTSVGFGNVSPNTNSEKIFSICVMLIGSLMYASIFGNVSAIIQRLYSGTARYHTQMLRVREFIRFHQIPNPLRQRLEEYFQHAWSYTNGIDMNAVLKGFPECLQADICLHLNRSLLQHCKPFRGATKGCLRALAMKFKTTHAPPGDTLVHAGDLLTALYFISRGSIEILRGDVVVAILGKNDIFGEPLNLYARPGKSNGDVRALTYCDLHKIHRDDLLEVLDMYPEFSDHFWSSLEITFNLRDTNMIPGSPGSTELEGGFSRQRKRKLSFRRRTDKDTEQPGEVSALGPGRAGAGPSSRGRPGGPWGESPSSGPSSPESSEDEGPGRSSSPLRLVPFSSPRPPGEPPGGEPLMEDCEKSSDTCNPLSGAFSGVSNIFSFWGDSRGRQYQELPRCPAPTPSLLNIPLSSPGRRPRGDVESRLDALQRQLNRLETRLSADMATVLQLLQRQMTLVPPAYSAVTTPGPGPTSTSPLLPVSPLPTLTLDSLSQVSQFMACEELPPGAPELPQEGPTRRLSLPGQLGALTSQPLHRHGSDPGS
T1 sequence (P35346 whole entry): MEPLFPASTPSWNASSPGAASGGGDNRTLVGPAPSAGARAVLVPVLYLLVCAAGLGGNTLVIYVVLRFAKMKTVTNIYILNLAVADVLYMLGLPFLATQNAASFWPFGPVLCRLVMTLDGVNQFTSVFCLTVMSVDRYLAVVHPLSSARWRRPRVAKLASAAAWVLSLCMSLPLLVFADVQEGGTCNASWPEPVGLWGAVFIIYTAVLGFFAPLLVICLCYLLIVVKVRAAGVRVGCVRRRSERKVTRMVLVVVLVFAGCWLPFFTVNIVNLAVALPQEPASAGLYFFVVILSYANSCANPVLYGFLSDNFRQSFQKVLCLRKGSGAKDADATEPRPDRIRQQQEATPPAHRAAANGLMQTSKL

inhibition at 1 µM (human SSTR5): 99%
Structure (SMILES): COc1c(CN2CC3(CC(N4CCC(C)(C(=O)O)CC4)=NO3)C2)cc(C2CC2)c(-c2ccc(F)cc2)c1Cl [Example 238, 1-(2-((2-Chloro-6-cyclopropyl-4′-fluoro-3-methoxybiphenyl-4-yl)methyl)-5-oxa-2,6-diazaspiro[3.4]oct-6-en-7-yl)-4-methylpiperidine-4-carboxylic acid]
Blood Glucose (BG) 10 min (C57BL/6J mice; 10 minutes after glucose load): 261 ± 42 | Blood Glucose (BG) 30 min (C57BL/6J mice; 30 minutes after glucose load): 350 ± 49 | Blood Glucose (BG) 60 min (C57BL/6J mice; 60 minutes after glucose load): 345 ± 38 | Blood Glucose (BG) 120 min (C57BL/6J mice; 120 minutes after glucose load): 188 ± 22 | AUCpre-120 min (C57BL/6J mice; blood glucose AUC pre to 120 min after glucose load): 576 ± 52 | Blood Glucose (BG) pre (C57BL/6J mice; just before glucose load): 148 ± 19 | % hERG inhibition (10 μM) (hERG): 10%
